# Measured values from publication PMC6412891, “Synthesis and Biological Evaluation of Novel Thiazolyl-Coumarin Derivatives as Potent Histone Deacetylase Inhibitors with Antifibrotic Activity” (Molecules, 2019).
# Columns and labels:
# α-SMA expression in CFs = experiment: α-SMA expression levels in cardiac fibroblasts, western blot; type: cell-based, rat; conditions: for α-SMA expression levels: 5 μM for 48 h, absence of TGF-β1, vs. control; for α-SMA expression levels induced by TGF-β1: derivatives 5 μM (TSA 0.1 μM) for 48 h in presence of TGF-β1
# Description: For this purpose, a fixed concentration of 5a, 6a, 7a and 8a derivatives in the presence/absence of TGF–β1 (a strong inducer of CFs–to–CMFs differentiation), was studied, and α–SMA expression levels were measured by using the western blot technique. TSA was used as a control and also for comparative purposes.
# For the analysis of the protein expression of histone H4–acetylated (ac–H4) and total H4 histone, a number of 1 × 10^6 of CFs seeded in 60 mm plates was used, which were incubated with the inhibitory compounds at a concentration of 10 μM, in the absence/presence of TGF–β1(5ng/mL) for 4 h. Subsequently, total histones were extracted by the technique of saline precipitation (high salt extraction). Briefly, CFs were scraped from the plates with 1 mL of cold PBS transferring their contents to Eppendorf tubes to be centrifuged for 60 s at 1500 rpm at 4 °C and re–suspended in 400 μL of cold buffer A (10 mM 4-(2-hydroxyethyl)-1-piperazineethanesulfonic acid-KOH (HEPES-KOH) adjusted to pH 7.9, 1.5 mM MgCl2, 10 mM KCl, 0.5 mM dithiothreitol and 0.2 mM phenylmethylsulfonyl fluoride (PMSF). The suspension is left on ice for 10 min and then placed in the vortex for 10 s. The samples were centrifuged for 60 s, subsequently discarding the supernatant fraction. The obtained pellet was re-suspended in 60 μL of cold C buffer (20 mM HEPES-KOH adjusted to pH 7.9, 25% glycerol, 420 mM NaCl, 1.5 mM MgCl2, 0.2 mM EDTA, dithiothreitol 0.5 mM and 0.2 mM PMSF) and placed on ice for 20 min for saline precipitation. Cell debris is removed by centrifugation for 120 s at 1500 rpm at 4 °C and the supernatant fraction, which contains the DNA binding proteins, is stored at minus 20 °C. For the analysis of α–SMA and procollagen type I expression levels, 3×10^5 CFs seeded in 35 mm plates were used, which were incubated together with inhibitor compounds at a 5 μM, in the absence/presence of TGF–β1 (5 ng/mL) for 48 h. To obtain the total proteins, the CFs were washed three times with cold PBS, then scraped and lysed with 50 μL of radio inmuno-precipitation assay (RIPA) lysis buffer (10 mM Tris–HCl pH 7.2, 5 mM EDTA, 150 mM NaCl, Triton X–100 1%, sodium dodecyl sulfate (SDS) 0.1%, deoxycholate 1%, leupeptin 2 μg/mL, aprotinin 10mM, PMSF 1mM and Na3VO4 100μM). The solution was centrifuged for 15 min at 10,000 rpm and at 4 °C. The supernatant fraction containing the total proteins was stored at minus 20 °C. The concentration of proteins obtained was determined by spectrophotometry at 570 nm, using the Bradford method (Bio-Rad, Hercules, CA, USA).
# CFs proteins (25 μg), were subjected to 10% sodium dodecyl sulfate-polyacrylamide gel electrophoresis and finally transferred onto a nitrocellulose membrane (Millipore, Billerica, MA, USA). The membrane was washed twice with tris–buffered saline solution containing 0.1% Tween 20 (TBST). After being blocked with TBST containing 5% nonfat milk for 40 min, the membrane was incubated with primary antibodies in TBST/1% nonfat milk at 4 °C overnight. The membrane was washed three times with TBST for a total of 15 min and then incubated with primary antibodies (ac–H4, H4 total, α-SMA, procollagen type I and GAPDH). Then the membrane was incubated with goat anti–rabbit or anti-mouse IgG antibodies conjugated with horseradish (diluted 1:1000) for 1 h at room temperature. Signals were developed with ECL reagents and exposure to photographic film.
# Figure 4 CTz non–substituted inhibit α-SMA expression in cardiac fibroblasts. (A) CFs were exposed to 5a, 6a, 7a and 8a at 5 μM for 48 h. […] (B) CFs were exposed to 5a, 6a, 7a and 8a at 5 μM for 48 h in presence of TGF–β1 ([…]). α-SMA expression levels were measured by western blot. GAPDH was used as control load.
melting point,SMILES,α-SMA expression levels (α-SMA expression in CFs),α-SMA expression levels induced by TGF-β1 (α-SMA expression in CFs)
150 to 152 °C (dec.),"O=C(CCCCC(=O)Nc1nc(-c2cc3ccccc3oc2=O)cs1)NO [Compound 8a, 5-[4-(2-Oxo-2H-chromen-3-yl)-thiazol-2-yl-carbamoyl]-N-hydroxypentanamide]",decreased in a statistically significant manner,decrease close to control levels
91 to 92 °C,"O=C(CCCCC1CCSS1)Nc1nc(-c2cc3ccccc3oc2=O)cs1 (stereo not drawn) [Compound 5a, 5-[1,2]-Dithiolan-3-yl-N-[4-(2-oxo-2H-chromen-3-yl)-thiazol-2-yl]-pentanamide]",decreased in a statistically significant manner,decrease close to control levels
,O=C(Nc1nc(-c2cc3ccccc3oc2=O)cs1)c1ccc(O)c(O)c1 [Compound 6a],decreased in a statistically significant manner,decrease close to control levels
,O=C(O)CCCCC(=O)Nc1nc(-c2cc3ccccc3oc2=O)cs1 [Compound 7a],had no effect,
